Data published in US20240208992A1, “MACROCYCLES AS CFTR MODULATORS” (Idorsia Pharmaceuticals Ltd, priority 2021, published 2024).

Target: human F508del-CFTR (Homo sapiens, UniProt P13569, DEL508-508)
Experiment: F508del-CFTR cell surface expression (corrector activity), DiscoveRx ß-galactosidase complementation chemiluminescence assay in recombinant U2OS cell line;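 further: U2OS cells co-expressing ProLink-tagged F508del-CFTR and a membrane-anchored enzyme acceptor, where more surface CFTR restores β-galactosidase activity measured by chemiluminescence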
Conditions: for EC50: EC50, F508del-CFTR cell surface expression, 16h compound incubation, geomean values; for Emax: U2OS, in relation to Emax of corrector lumacaftor (=100%), arithmetic mean values

Sequence of human F508del-CFTR (P13569 with tags, fused parts or gaps DEL508-508): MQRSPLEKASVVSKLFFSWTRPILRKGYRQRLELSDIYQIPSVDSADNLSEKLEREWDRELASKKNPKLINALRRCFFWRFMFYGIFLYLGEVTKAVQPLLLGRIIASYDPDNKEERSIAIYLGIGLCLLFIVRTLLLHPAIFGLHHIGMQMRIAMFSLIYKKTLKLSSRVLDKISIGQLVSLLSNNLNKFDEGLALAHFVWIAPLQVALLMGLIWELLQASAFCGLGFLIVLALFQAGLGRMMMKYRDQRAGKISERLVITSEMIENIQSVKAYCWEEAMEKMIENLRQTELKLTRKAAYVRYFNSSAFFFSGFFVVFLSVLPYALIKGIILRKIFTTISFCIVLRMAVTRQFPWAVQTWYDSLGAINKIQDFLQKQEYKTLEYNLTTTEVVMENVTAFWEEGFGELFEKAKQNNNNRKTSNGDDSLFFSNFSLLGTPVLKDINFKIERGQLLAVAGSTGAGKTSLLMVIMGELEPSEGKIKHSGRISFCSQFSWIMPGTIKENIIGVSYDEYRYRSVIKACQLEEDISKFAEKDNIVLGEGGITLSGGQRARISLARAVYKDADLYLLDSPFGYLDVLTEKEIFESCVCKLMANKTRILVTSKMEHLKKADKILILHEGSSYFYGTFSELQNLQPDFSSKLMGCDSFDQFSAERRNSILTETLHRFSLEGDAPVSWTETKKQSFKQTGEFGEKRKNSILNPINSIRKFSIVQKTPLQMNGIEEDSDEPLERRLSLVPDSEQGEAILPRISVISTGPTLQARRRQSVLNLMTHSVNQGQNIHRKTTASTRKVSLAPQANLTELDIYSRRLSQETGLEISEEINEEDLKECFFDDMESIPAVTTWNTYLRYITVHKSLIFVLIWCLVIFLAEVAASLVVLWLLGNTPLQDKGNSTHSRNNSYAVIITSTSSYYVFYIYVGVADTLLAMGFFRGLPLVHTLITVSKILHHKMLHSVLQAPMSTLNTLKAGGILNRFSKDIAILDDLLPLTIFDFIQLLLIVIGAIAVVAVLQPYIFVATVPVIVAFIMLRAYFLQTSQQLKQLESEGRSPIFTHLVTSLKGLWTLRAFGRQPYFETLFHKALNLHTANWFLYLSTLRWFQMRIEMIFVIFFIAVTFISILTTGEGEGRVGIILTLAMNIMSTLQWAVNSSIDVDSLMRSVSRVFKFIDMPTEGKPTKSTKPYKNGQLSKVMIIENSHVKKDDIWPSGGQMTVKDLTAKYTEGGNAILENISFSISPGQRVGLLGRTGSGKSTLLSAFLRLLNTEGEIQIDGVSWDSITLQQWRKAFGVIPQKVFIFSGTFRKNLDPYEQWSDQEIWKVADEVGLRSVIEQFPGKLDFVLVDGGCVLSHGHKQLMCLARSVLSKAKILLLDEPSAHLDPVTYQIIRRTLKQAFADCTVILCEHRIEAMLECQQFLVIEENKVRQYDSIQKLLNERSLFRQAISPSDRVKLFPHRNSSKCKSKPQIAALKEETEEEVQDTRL

Compound	EC50 (U2OS cell line)	EC50 (U2OS cells)	Emax
CN1C(=O)C[C@@H](C(=O)NCCc2ccc3c(c2)OCO3)NC(=O)c2c(ccc3ccccc23)OC[C@@H](Cc2ccccc2)NC(=O)CN(CCC2CCCCC2)C(=O)[C@@H]1CC1CCCC1 (mixture of isomers) [Example 290, (3RS,7S,13R)-N-(2-(benzo[d][1,3]dioxol-5-yl)ethyl)-13-benzyl-9-(2-cyclohexylethyl)-7-(cyclopentylmethyl)-6-methyl-1,5,8,11-tetraoxo-1,2,3,4,5,6,7,8,9,10,11,12,13,14-tetradecahydronaphtho[1,2-p][1]oxa[4,7,10,14]tetraazacycloheptadecine-3-carboxamide]	188 nM		
CN1C(=O)C[C@@H](C(=O)NCCc2ccc3c(c2)OCO3)NC(=O)c2c(ccc3ccccc23)OC[C@@H](Cc2ccccc2)NC(=O)CN(CCC2CCCCC2)C(=O)[C@@H]1CC1CCC1 (mixture of isomers) [Example 292, (3RS,7S,13R)-N-(2-(benzo[d][1,3]dioxol-5-yl)ethyl)-13-benzyl-7-(cyclobutylmethyl)-9-(2-cyclohexylethyl)-6-methyl-1,5,8,11-tetraoxo-1,2,3,4,5,6,7,8,9,10,11,12,13,14-tetradecahydronaphtho[1,2-p][1]oxa[4,7,10,14]tetraazacycloheptadecine-3-carboxamide]	114 nM		
COc1cccc(CCNC(=O)[C@@H]2CC(=O)N(C)[C@@H](CC3CCCC3)C(=O)N(C[C@@H]3CCCCO3)CC(=O)N[C@H](Cc3ccccc3)COc3ccc4ccccc4c3C(=O)N2)c1 (mixture of isomers) [Example 293, (3RS,7S,13R)-13-benzyl-7-(cyclopentylmethyl)-N-(3-methoxyphenethyl)-6-methyl-1,5,8,11-tetraoxo-9-(((S)-tetrahydro-2H-pyran-2-yl)methyl)-1,2,3,4,5,6,7,8,9,10,11,12,13,14-tetradecahydronaphtho[1,2-p][1]oxa[4,7,10,14]tetraazacycloheptadecine-3-carboxamide]	340 nM		
COc1cccc(CCNC(=O)[C@@H]2CC(=O)N(C)[C@@H](CC3CCCC3)C(=O)N(C[C@@H]3CCCCO3)CC(=O)N[C@H](Cc3ccccc3)COc3ccc4ccccc4c3C(=O)N2)c1 (mixture of isomers) [Example 295, (3RS,7S,13R)-13-benzyl-7-(cyclopentylmethyl)-N-(3-methoxyphenethyl)-6-methyl-1,5,8,11-tetraoxo-9-(((R)-tetrahydro-2H-pyran-2-yl)methyl)-1,2,3,4,5,6,7,8,9,10,11,12,13,14-tetradecahydronaphtho[1,2-p][1]oxa[4,7,10,14]tetraazacycloheptadecine-3-carboxamide]	202 nM		
COc1cccc(CCNC(=O)[C@@H]2CC(=O)N(C)[C@@H](CC3CCCCC3)C(=O)N(C[C@H]3CCCCO3)CC(=O)N[C@H](Cc3ccccc3)COc3ccc4ccccc4c3C(=O)N2)c1 (mixture of isomers) [Example 296, (3RS,7S,13R)-13-benzyl-7-(cyclohexylmethyl)-N-(3-methoxyphenethyl)-6-methyl-1,5,8,11-tetraoxo-9-(((R)-tetrahydro-2H-pyran-2-yl)methyl)-1,2,3,4,5,6,7,8,9,10,11,12,13,14-tetradecahydronaphtho[1,2-p][1]oxa[4,7,10,14]tetraazacycloheptadecine-3-carboxamide]	158 nM		
COc1cccc(CCNC(=O)[C@@H]2CC(=O)N(C)[C@@H](CC3CCCC3)C(=O)N(CCC3CCCCC3)CC(=O)N[C@H](Cc3ccccc3)COc3ccc4ccccc4c3C(=O)N2)c1 (mixture of isomers) [Example 300, (3RS,7S,13R)-13-benzyl-9-(2-cyclohexylethyl)-7-(cyclopentylmethyl)-N-(3-methoxyphenethyl)-6-methyl-1,5,8,11-tetraoxo-1,2,3,4,5,6,7,8,9,10,11,12,13,14-tetradecahydronaphtho[1,2-p][1]oxa[4,7,10,14]tetraazacycloheptadecine-3-carboxamide]	103 nM		
COc1cccc(CCNC(=O)[C@@H]2CC(=O)N(C)[C@@H](CC3CCCCC3)C(=O)N(CCC3CCCCC3)CC(=O)N[C@H](Cc3ccccc3)COc3ccc4ccccc4c3C(=O)N2)c1 (mixture of isomers) [Example 301, (3RS,7S,13R)-13-benzyl-9-(2-cyclohexylethyl)-7-(cyclohexylmethyl)-N-(3-methoxyphenethyl)-6-methyl-1,5,8,11-tetraoxo-1,2,3,4,5,6,7,8,9,10,11,12,13,14-tetradecahydronaphtho[1,2-p][1]oxa[4,7,10,14]tetraazacycloheptadecine-3-carboxamide]	112 nM		
COc1cc2c(cn1)OC[C@@H](Cc1ccccc1)NC(=O)[C@@H]1CCCCN1C(=O)[C@H](CC(C)C)N(C)C(=O)C[C@@H](C(=O)NCCc1noc(C3CC3)n1)NC2=O (mixture of isomers) [Example 516, (7S,11S,17aRS,20R)-20-benzyl-N-(2-(5-cyclopropyl-1,2,4-oxadiazol-3-yl)ethyl)-11-isobutyl-3-methoxy-10-methyl-5,9,12,18-tetraoxo-5,6,7,8,9,10,11,12,15,16,17,17a,18,19,20,21-hexadecahydro-14H-dipyrido[2,1-f:4′,3′-p][1]oxa[4,7,10,14]tetraazacycloheptadecine-7-carboxamide]		494 nM	155%
COc1cccc(CCNC(=O)[C@@H]2CC(=O)N(C)[C@@H](CC(C)C)C(=O)N3CCc4ccccc4[C@H]3C(=O)N[C@H](Cc3ccccc3)COc3ccnc(OC)c3C(=O)N2)c1 (mixture of isomers) [Example 569, (7S,11S,19bRS,22R)-22-benzyl-11-isobutyl-4-methoxy-N-(3-methoxyphenethyl)-10-methyl-5,9,12,20-tetraoxo-5,6,7,8,9,10,11,12,15,19b,20,21,22,23-tetradecahydro-14H-pyrido[3′,4′:16,17][1]oxa[4,7,10,14]tetraazacycloheptadecino[6,7-a]isoquinoline-7-carboxamide]		108 nM	270%
COc1cccc(CCNC(=O)[C@@H]2CC(=O)N(C)[C@@H](CC(C)C)C(=O)N(C)[C@@H](C)C(=O)N[C@H](Cc3ccccc3)COc3ccc4cc(C)oc4c3C(=O)N2)c1 (mixture of isomers) [Example 575, (8R,11RS,14S,18S)-8-benzyl-14-isobutyl-N-(3-methoxyphenethyl)-2,11,12,15-tetramethyl-10,13,16,20-tetraoxo-7,8,9,10,11,12,13,14,15,16,17,18,19,20-tetradecahydrobenzofuro[7,6-p][1]oxa[4,7,10,14]tetraazacycloheptadecine-18-carboxamide]		411 nM	273%
Cc1cc(CCNC(=O)[C@@H]2CC(=O)N(C)[C@@H](CC(C)C)C(=O)N(C)[C@@H](C)C(=O)N[C@H](Cc3ccccc3)COc3ccc4cc(C)oc4c3C(=O)N2)on1 (mixture of isomers) [Example 576, (8R,11RS,14S,18S)-8-benzyl-14-isobutyl-2,11,12,15-tetramethyl-N-(2-(3-methylisoxazol-5-yl)ethyl)-10,13,16,20-tetraoxo-7,8,9,10,11,12,13,14,15,16,17,18,19,20-tetradecahydrobenzofuro[7,6-p][1]oxa[4,7,10,14]tetraazacycloheptadecine-18-carboxamide]		523 nM	268%
COc1cccc(CCNC(=O)[C@@H]2CC(=O)N(C)[C@@H](CC(C)C)C(=O)N3CCOC[C@H]3C(=O)N[C@H](Cc3ccccc3)COc3ccc4c(C)noc4c3C(=O)N2)c1 (mixture of isomers) [Example 624, (4aRS,7R,17S,21S)-7-benzyl-21-isobutyl-N-(3-methoxyphenethyl)-12,20-dimethyl-5,15,19,22-tetraoxo-1,2,4,4a,5,6,7,8,15,16,17,18,19,20,21,22-hexadecahydroisoxazolo[4′,5′:5,6]benzo[1,2-p][1,4]oxazino[3,4-f][1]oxa[4,7,10,14]tetraazacycloheptadecine-17-carboxamide]		921 nM	171%
COc1cc2c(cn1)OC[C@@H](Cc1ccccc1)NC(=O)[C@@H]1CCCCN1C(=O)[C@H](CC(C)C)N(C)C(=O)C[C@@H](C(=O)NCCc1cc(C3CC3)no1)NC2=O (mixture of isomers) [Example 652, (7S,11S,17aRS,20R)-20-benzyl-N-(2-(3-cyclopropylisoxazol-5-yl)ethyl)-11-isobutyl-3-methoxy-10-methyl-5,9,12,18-tetraoxo-5,6,7,8,9,10,11,12,15,16,17,17a,18,19,20,21-hexadecahydro-14H-dipyrido[2,1-f:4′,3′-p][1]oxa[4,7,10,14]tetraazacycloheptadecine-7-carboxamide]		593 nM	155%
COc1cccc(CCNC(=O)[C@@H]2CC(=O)N(C)[C@@H](CC(C)C)C(=O)N(C)[C@@H](COC(C)(C)C)C(=O)N[C@H](Cc3ccccc3)COc3ccc4ccccc4c3C(=O)N2)c1 (mixture of isomers) [Example 717, (3S,7S,10RS,13R)-13-benzyl-10-(tert-butoxymethyl)-7-isobutyl-N-(3-methoxyphenethyl)-6,9-dimethyl-1,5,8,11-tetraoxo-1,2,3,4,5,6,7,8,9,10,11,12,13,14-tetradecahydronaphtho[1,2-p][1]oxa[4,7,10,14]tetraazacycloheptadecine-3-carboxamide]		69 nM	348%
COc1cccc(CCNC(=O)[C@@H]2CC(=O)N(C)[C@@H](CC(C)C)C(=O)N(C)[C@@H](CO)C(=O)N[C@H](Cc3ccccc3)COc3ccc4ccccc4c3C(=O)N2)c1 (mixture of isomers) [Example 718, (3S,7S,10RS,13R)-13-benzyl-10-(hydroxymethyl)-7-isobutyl-N-(3-methoxyphenethyl)-6,9-dimethyl-1,5,8,11-tetraoxo-1,2,3,4,5,6,7,8,9,10,11,12,13,14-tetradecahydronaphtho[1,2-p][1]oxa[4,7,10,14]tetraazacycloheptadecine-3-carboxamide]		359 nM	
